From patent US9718809B2, “Bisarylsulfonamides useful in the treatment of inflammation and cancer” (Kancera AB, priority 2011, dated 2017) come the findings set out here.

The test system of data set [1] is F-2,6-P2 in NUGC-3 cells. Put plainly: Quantification of F-2,6-P2 (Van Schaftingen coupled enzyme assay) in NUGC-3 cells. The note with it: Homo sapiens; NUGC-3 cells seeded at 25 000 cells/well; read-out: IC50 based on quantification of F-2,6-P2. The data set is classed as cell-based. The text has this:
(§1) A method for quantification of F-2,6-P2 has been described by Van Schaftingen et al. (1982) Eur. J. Biochem. 129, 191-5. This sensitive assay is based on the potent activation of pyrophosphate dependent phosphofructokinase-1 (PPi-PFK) from potato tubers by F-2,6-P2. The use of a series of coupled enzymes leads to a consumption of NADH (nicotinamide adenine dinucleotide) that can be followed spectrophotometrically (an updated protocol is available in Van Schaftingen, (1984) Methods of Enzymatic Analysis (Bergmeyer, H. U., ed.), 3rd edn., vol. 6, pp. 335-341, Verlag Chemie, Weinheim). A protocol for measurements in 96-well microtiter plate format is also available (Bruni et al., (1989) Anal. Biochem. 178, 324-6).
(§2) The levels of F-2,6-P2 have been determined using the van Shaftingen assay as described in the protocol below, in six different cancer cell lines endogenously expressing varying levels of the different isoforms of PFK-2/BPase-2 (MCF-7, PANC-1, NUGC-3, SW480, SW620 and MIA PaCa-2). All reagents were purchased from commercial sources or prepared in-house.
Cell line C (NUGC-3, human gastric cancer cell line): NUGC-3 cells (JCRB0822), lot no. 04272009. Growth medium: RPMI1640, #R8758, Sigma-Aldrich; 10% FBS, Invitrogen, 10270-106 or Dulbecco's Modified Eagle's Medium, DMEM, VWR, LONZ12-604F; 10% FBS, Invitrogen, 10270-106. Cells were seeded at a concentration of ˜350 000 cells/mL in 100 μL growth medium (˜35 000 cells/well).
Starvation medium (cell lines A-F): DMEM/F12 without phenol red and glucose free, SVA, 991373; 0.25% FBS, Invitrogen, 10270-106.
Induction medium (cell lines A-F): DMEM/F12 without phenol red and glucose free, SVA, 991373; 0.25% FBS, Invitrogen, 10270-106 (same as starvation medium).
Cells were seeded in 96-well Corning Costar tissue culture plates (CLS3595, Sigma-Aldrich) using the concentrations specified above for the different cell lines A-F and incubated over night at 37° C. and 5% CO2. Row A in the plate was left empty and the cell lines added to rows B-H. Next day the growth medium was discarded and replaced with 100 μL starvation medium. The plates were incubated for 18 h at 37° C. and 5% CO2. After 18 h of starvation the cells were induced with 100 μL compound or control solutions. Compounds were either tested in two concentrations (50 μM and 10 μM) or in dose response curves starting from 50 μM. The final DMSO concentration in assay plates was 0.5%. Also a dose response curve of a reference inhibitor was included in row H on each plate. All compounds were tested in duplicate plates. Compounds (in 96 well CLS 3365, Sigma-Aldrich plates) were serial diluted in DMSO from 10 mM compound DMSO stock solutions with Janus (automated liquid handling workstation from PerkinElmer). Five μL were transferred to a Greiner deep well plate (736-0155, VWR) with 495 μL starvation medium. The final start concentration of compounds in the dilution plate was 100 μM, 1% DMSO. For compounds tested as single points, 10 mM compound solutions were diluted five fold in DMSO to 2 mM, followed by the transfer of 5 μL to separate dilution plates with 495 μL starvation medium. The final concentrations of compounds in these dilution plates were 100 or 20 μM, respectively, and final concentration of DMSO was 1%. The plates were incubated at 37° C. and 5% CO2 for 1 h, followed by the addition of 10 μL 20 mM D-glucose in starvation medium. Controls, with and without 1 mM glucose, were included in row B. The final assay volume was 210 μL per well. After 2 h of incubation at 37° C. and 5% CO2, the supernatants were discarded and the cells lysed by the addition of 25 μL 250 mM NaOH. The plates were incubated at 37° C. and 5% CO2 for 5 min followed by an addition of 75 μL MilliQ dH2O. The supernatants were further diluted with 210 μL MilliQ dH2O to a final concentration of 20 mM NaOH. 200 μL were transferred to NUNC 96-well plates (7322661, VWR) and the plates were sealed and stored at −20° C. until analysis. […]

Data set [2] concerns F-2,6-P2 in SW480 cells. Kind of data set: Quantification of F-2,6-P2 (Van Schaftingen coupled enzyme assay) in SW480 cells. The class given is cell-based. The note with it: Homo sapiens, read-out: IC50 based on quantification of F-2,6-P2.
Text: as §1, §2
Cell line D (SW480, human colorectal adenocarcinoma): SW480 cells (ATCC-CCL-228), lot. no. 58471880. Cells were seeded at a concentration of ˜350 000 cells/mL in 100 μL growth medium (˜35 000 cells/well).
(§3) Growth medium (cell lines B-F): Dulbecco's Modified Eagle's Medium, DMEM, VWR, LONZ12-604F; 10% FBS, Invitrogen, 10270-106. […]

The test system of data set [3] is PANC-1 cells. Put plainly: Inhibition of cancer cell proliferation, total cellular protein (Sulphorhodamine B), PANC-1. The note with it: Homo sapiens, 72 h, read-out: IC50 based on quantitation of total cellular protein after treatment. The procedure: To assess the antiproliferative response elicited by the compounds of the present invention in different tumour cell lines, total cellular protein in samples was quantified using the Sulphorhodamine B kit, TOX6, (Sigma-Aldrich). The protocol is based on quantitation of total cellular protein after indicated treatments and incubation times using the Sulphorhodamine B kit, TOX6, (Sigma-Aldrich).
Briefly, after protein precipitation using TCA according to the manufacturer's instructions, the sulphorhodamine dye (80 μL/well) was added to the air-dried wells. After 20 min incubation at room temperature, the dye was discarded and the samples were gently rinsed with 1% HOAc until clear. After air drying, bound dye was solubilised in 200 μL 10 mM Tris base, and the absorbance of dye was measured at 565 nm. To quantify growth, samples were collected also at t=0 h, and the resulting absorbance was set to 100%.
For experiments studying the effect of the herein described compounds per se, i.e. without combination treatment with cisplatin, the above protocol was applied with the following modifications. See Table II for details for each specific cell line. Briefly, cells were plated at a density of 6,000 cells/well 96-well Corning Costar tissue culture plates (CLS3596, Sigma-Aldrich) in assay medium and allowed to attach over night at 37° C., 5% CO2. Day 2 the compounds were diluted ½ in dose response curve mode in 100% DMSO, required volume was transferred to assay medium to a maximal DMSO concentration of 0.1%. The diluted compounds were added to the cells with a starting dose response concentration of 100 μM. All compounds were tested in duplicate plates.
After protein precipitation using TCA according to the manufacturer's instructions, the sulforhodamine B dye (50 μL/well) was added to the air-dried wells. After 20 min incubation at room temperature, the dye was discarded and the samples were gently rinsed with 1% HOAc until clear. After air drying, bound dye was solubilised in 100 μL 10 mM Tris base, and the absorbance of dye was measured at 530 nm and a background absorbance (subtract from the measurement at 530 nm) at 690 nm. To quantify growth, samples were collected also at t=0 h.

The test system of data set [4] is F-2,6-P2 in SW620 cells. Put plainly: Quantification of F-2,6-P2 (Van Schaftingen coupled enzyme assay) in SW620 cells. The data set is classed as cell-based. The note with it: Homo sapiens, SW-620, read-out: IC50 based on quantification of F-2,6-P2.
Text: as §1, §2
Cell line E (SW620, human colorectal adenocarcinoma): SW620 cells (ATCC-CCL-227), lot. no. 58483168. Cells were seeded at a concentration of ˜350 000 cells/mL in 100 μL growth medium (˜35 000 cells/well).
as §3

Data set [5] deals with NMRI mice. Put plainly: In vivo tolerance in NMRI mice. The note with it: 25 and 45 mg/kg. More on the design: species or system mouse. The procedure:
In vivo tolerance was tested in NMRI mice using Examples 157 and 183 in 2 doses (25 and 45 mg/kg), following intraperitoneal injections daily for seven days.

Data set [6] concerns F-2,6-P2 in MIA PaCa-2 cells. Kind of data set: Quantification of F-2,6-P2 (Van Schaftingen coupled enzyme assay) in MIA PaCa-2 cells. The data set is classed as cell-based. Conditions: Homo sapiens, read-out: IC50 based on quantification of F-2,6-P2.
Text: as §1, §2
Cell line F (MIA PaCa-2, human pancreatic carcinoma): MIA PaCa-2 cells (ATCC-CRL-1420), lot. no. 59270201. Cells were seeded at a concentration of ˜250 000 cells/mL in 100 μL growth medium (˜25 000 cells/well). […]

Structures are written as SMILES.

The IC50 is the point on the concentration scale where inhibition reaches its midpoint. For `COC(=O)c1ccc(NS(=O)(=O)c2cccc(-c3ccccc3O)c2)cc1O` [Example 82, Methyl 2-hydroxy-4-{[(2′-hydroxybiphenyl-3-yl)sulfonyl]amino}benzoate], the IC50 in data set [1] worked out at 1080 nM; in data set [2], 6200 nM.

Turning to `COC(=O)c1ccc(NS(=O)(=O)c2cc(-c3ccccc3O)c(Cl)s2)cc1O` [Example 156, Methyl 4-({[5-chloro-4-(2-hydroxyphenyl)-2-thienyl]sulfonyl}amino)-2-hydroxybenzoate], the IC50 in data set [3] is 16100 nM; in data set [4], 2800 nM.

For the compound `COC(=O)c1ccc(NS(=O)(=O)c2cc(-c3cc(F)ccc3O)c(Cl)s2)cc1O` [Example 157, methyl 4-({[5-chloro-4-(5-fluoro-2-hydroxyphenyl)-2-thienyl]sulfonyl}amino)-2-hydroxybenzoate], the “histological examinations of organs” value in data set [5] (intraperitoneal daily for seven days, adrenal gland, brain, cerebellum, heart, intestines, kidneys, liver, lungs, mesenteric lymph node, pancreas, spleen) was “Specific lesions consistent with toxic damage were not observed”. Besides, in data set [5] (intraperitoneal injections daily for seven days), the “macro observations during and after treatment” value is listed as “no sign of abnormal behavior or health problem”. For the same compound, the IC50 in data set [6] amounted to 2000 nM.

Consider `O=C(OCCCN1CCOCC1)c1ccc(NS(=O)(=O)c2c(Cl)sc(Cl)c2Cl)cc1O` [Example 164, 3-Morpholin-4-ylpropyl 2-hydroxy-4-{[(2,4,5-trichloro-3-thienyl)sulfonyl]amino}benzoate], for which the IC50 in data set [2] is 5400 nM.

`COCC(C)OC(=O)c1ccc(NS(=O)(=O)c2cc(Cl)c(Cl)s2)cc1O` (stereo not drawn) [Example 194, 2-Methoxy-1-methylethyl 4-{[(4,5-dichlorothiophen-2-yl)sulfonyl]amino}-2-hydroxybenzoate]: in data set [4], the 50% inhibitory concentration (IC50) came to 800 nM.
